Reference: ChEMBL document CHEMBL2424552, “Cytotoxic effect of novel dehydroepiandrosterone derivatives on different cancer cell lines” (2013)

System: PC-3
Test: Growth inhibition of human PC3 cells at 50 uM after 48 hrs by SRB assay relative to control
Type: functional
Details: PC-3, 48 h, read-out: GI

Structure (SMILES) | inhibition of growth at 50 µM [%]
C[C@]12CC[C@H](OC(=O)C3CCCC3)CC1=CC[C@@H]1[C@@H]2CC[C@]2(C)C(n3cncn3)=C(C=O)C[C@@H]12 | 23.8
C[C@]12CC[C@H](OC(=O)C3CCCCC3)CC1=CC[C@@H]1[C@@H]2CC[C@]2(C)C(n3cncn3)=C(C=O)C[C@@H]12 | 0
C[C@]12CC[C@H](OC(=O)C3CCCCCC3)CC1=CC[C@@H]1[C@@H]2CC[C@]2(C)C(n3cncn3)=C(C=O)C[C@@H]12 | 36.8
COc1ccc(C(=O)O[C@H]2CC[C@@]3(C)C(=CC[C@@H]4[C@@H]3CC[C@]3(C)C(n5cncn5)=C(C=O)C[C@@H]43)C2)cc1 | 0
Cc1ccc(C(=O)O[C@H]2CC[C@@]3(C)C(=CC[C@@H]4[C@@H]3CC[C@]3(C)C(n5cncn5)=C(C=O)C[C@@H]43)C2)cc1 | 3.1
C[C@]12CC[C@H](OC(=O)c3ccccc3)CC1=CC[C@@H]1[C@@H]2CC[C@]2(C)C(n3cncn3)=C(C=O)C[C@@H]12 | 21.8
C[C@]12CC[C@H](OC(=O)c3ccc(C(F)(F)F)cc3)CC1=CC[C@@H]1[C@@H]2CC[C@]2(C)C(n3cncn3)=C(C=O)C[C@@H]12 | 100
C[C@]12CC[C@H](OC(=O)c3ccc(C#N)cc3)CC1=CC[C@@H]1[C@@H]2CC[C@]2(C)C(n3cncn3)=C(C=O)C[C@@H]12 | 100
C[C@]12CC[C@H](OC(=O)c3ccc([N+](=O)[O-])cc3)CC1=CC[C@@H]1[C@@H]2CC[C@]2(C)C(n3cncn3)=C(C=O)C[C@@H]12 | 85.7
COc1ccc(C(=O)O[C@H]2CC[C@@]3(C)C(=CC[C@@H]4[C@@H]3CC[C@]3(C)C(n5cccn5)=C(C=O)C[C@@H]43)C2)cc1 | 51.5
Cc1ccc(C(=O)O[C@H]2CC[C@@]3(C)C(=CC[C@@H]4[C@@H]3CC[C@]3(C)C(n5cccn5)=C(C=O)C[C@@H]43)C2)cc1 | 0
C[C@]12CC[C@H](OC(=O)c3ccccc3)CC1=CC[C@@H]1[C@@H]2CC[C@]2(C)C(n3cccn3)=C(C=O)C[C@@H]12 | 31.4
C[C@]12CC[C@H](OC(=O)c3ccc(C(F)(F)F)cc3)CC1=CC[C@@H]1[C@@H]2CC[C@]2(C)C(n3cccn3)=C(C=O)C[C@@H]12 | 78.2
C[C@]12CC[C@H](OC(=O)c3ccc(C#N)cc3)CC1=CC[C@@H]1[C@@H]2CC[C@]2(C)C(n3cccn3)=C(C=O)C[C@@H]12 | 30.4
C[C@]12CC[C@H](OC(=O)c3ccc([N+](=O)[O-])cc3)CC1=CC[C@@H]1[C@@H]2CC[C@]2(C)C(n3cccn3)=C(C=O)C[C@@H]12 | 16.7
C[C@]12CC[C@H](OC(=O)c3ccc(F)cc3)CC1=CC[C@@H]1[C@@H]2CC[C@]2(C)C(n3cccn3)=C(C=O)C[C@@H]12 | 20.5
C[C@]12CC[C@H](OC(=O)c3ccc(Cl)cc3)CC1=CC[C@@H]1[C@@H]2CC[C@]2(C)C(n3cccn3)=C(C=O)C[C@@H]12 | 24.6
C[C@]12CC[C@H](OC(=O)c3ccc(Br)cc3)CC1=CC[C@@H]1[C@@H]2CC[C@]2(C)C(n3cccn3)=C(C=O)C[C@@H]12 | 3.7
C[C@]12CC[C@H](OC(=O)c3ccc(I)cc3)CC1=CC[C@@H]1[C@@H]2CC[C@]2(C)C(n3cccn3)=C(C=O)C[C@@H]12 | 58.4
C[C@]12CC[C@H](O)CC1=CC[C@@H]1[C@@H]2CC[C@]2(C)C(n3cccn3)=C(C=O)C[C@@H]12 | 100
C[C@]12CC[C@H](OC(=O)C3CC3)CC1=CC[C@@H]1[C@@H]2CC[C@]2(C)C(n3cncn3)=C(C=O)C[C@@H]12 | 88.7
C[C@]12CC[C@H](OC(=O)C3CCC3)CC1=CC[C@@H]1[C@@H]2CC[C@]2(C)C(n3cncn3)=C(C=O)C[C@@H]12 | 0
CC(=O)N1CCN(c2ccc(OCC3COC(Cn4ccnc4)(c4ccc(Cl)cc4Cl)O3)cc2)CC1 (centres undefined) [KETOCONAZOLE] | 88.5

System: SK-LU-1
Test: Growth inhibition of human SKLU1 cells at 50 uM after 48 hrs by SRB assay relative to control
Type: functional
Details: SK-LU-1, 48 h, read-out: GI

Structure (SMILES) | inhibition of growth at 50 µM [%]
C[C@]12CC[C@H](OC(=O)C3CCCC3)CC1=CC[C@@H]1[C@@H]2CC[C@]2(C)C(n3cncn3)=C(C=O)C[C@@H]12 | 0
C[C@]12CC[C@H](OC(=O)C3CCCCC3)CC1=CC[C@@H]1[C@@H]2CC[C@]2(C)C(n3cncn3)=C(C=O)C[C@@H]12 | 24.9
C[C@]12CC[C@H](OC(=O)C3CCCCCC3)CC1=CC[C@@H]1[C@@H]2CC[C@]2(C)C(n3cncn3)=C(C=O)C[C@@H]12 | 94.7
COc1ccc(C(=O)O[C@H]2CC[C@@]3(C)C(=CC[C@@H]4[C@@H]3CC[C@]3(C)C(n5cncn5)=C(C=O)C[C@@H]43)C2)cc1 | 9.2
Cc1ccc(C(=O)O[C@H]2CC[C@@]3(C)C(=CC[C@@H]4[C@@H]3CC[C@]3(C)C(n5cncn5)=C(C=O)C[C@@H]43)C2)cc1 | 68
C[C@]12CC[C@H](OC(=O)c3ccccc3)CC1=CC[C@@H]1[C@@H]2CC[C@]2(C)C(n3cncn3)=C(C=O)C[C@@H]12 | 39.7
C[C@]12CC[C@H](OC(=O)c3ccc(C(F)(F)F)cc3)CC1=CC[C@@H]1[C@@H]2CC[C@]2(C)C(n3cncn3)=C(C=O)C[C@@H]12 | 89.1
C[C@]12CC[C@H](OC(=O)c3ccc(C#N)cc3)CC1=CC[C@@H]1[C@@H]2CC[C@]2(C)C(n3cncn3)=C(C=O)C[C@@H]12 | 89.9
C[C@]12CC[C@H](OC(=O)c3ccc([N+](=O)[O-])cc3)CC1=CC[C@@H]1[C@@H]2CC[C@]2(C)C(n3cncn3)=C(C=O)C[C@@H]12 | 100
COc1ccc(C(=O)O[C@H]2CC[C@@]3(C)C(=CC[C@@H]4[C@@H]3CC[C@]3(C)C(n5cccn5)=C(C=O)C[C@@H]43)C2)cc1 | 80
Cc1ccc(C(=O)O[C@H]2CC[C@@]3(C)C(=CC[C@@H]4[C@@H]3CC[C@]3(C)C(n5cccn5)=C(C=O)C[C@@H]43)C2)cc1 | 8.5
C[C@]12CC[C@H](OC(=O)c3ccccc3)CC1=CC[C@@H]1[C@@H]2CC[C@]2(C)C(n3cccn3)=C(C=O)C[C@@H]12 | 5.8
C[C@]12CC[C@H](OC(=O)c3ccc(C(F)(F)F)cc3)CC1=CC[C@@H]1[C@@H]2CC[C@]2(C)C(n3cccn3)=C(C=O)C[C@@H]12 | 73.3
C[C@]12CC[C@H](OC(=O)c3ccc(C#N)cc3)CC1=CC[C@@H]1[C@@H]2CC[C@]2(C)C(n3cccn3)=C(C=O)C[C@@H]12 | 22.5
C[C@]12CC[C@H](OC(=O)c3ccc([N+](=O)[O-])cc3)CC1=CC[C@@H]1[C@@H]2CC[C@]2(C)C(n3cccn3)=C(C=O)C[C@@H]12 | 7.5
C[C@]12CC[C@H](OC(=O)c3ccc(F)cc3)CC1=CC[C@@H]1[C@@H]2CC[C@]2(C)C(n3cccn3)=C(C=O)C[C@@H]12 | 5.5
C[C@]12CC[C@H](OC(=O)c3ccc(Cl)cc3)CC1=CC[C@@H]1[C@@H]2CC[C@]2(C)C(n3cccn3)=C(C=O)C[C@@H]12 | 20.7
C[C@]12CC[C@H](OC(=O)c3ccc(Br)cc3)CC1=CC[C@@H]1[C@@H]2CC[C@]2(C)C(n3cccn3)=C(C=O)C[C@@H]12 | 17.4
C[C@]12CC[C@H](OC(=O)c3ccc(I)cc3)CC1=CC[C@@H]1[C@@H]2CC[C@]2(C)C(n3cccn3)=C(C=O)C[C@@H]12 | 93.5
C[C@]12CC[C@H](O)CC1=CC[C@@H]1[C@@H]2CC[C@]2(C)C(n3cccn3)=C(C=O)C[C@@H]12 | 100
C[C@]12CC[C@H](OC(=O)C3CC3)CC1=CC[C@@H]1[C@@H]2CC[C@]2(C)C(n3cncn3)=C(C=O)C[C@@H]12 | 100
C[C@]12CC[C@H](OC(=O)C3CCC3)CC1=CC[C@@H]1[C@@H]2CC[C@]2(C)C(n3cncn3)=C(C=O)C[C@@H]12 | 27
CC(=O)N1CCN(c2ccc(OCC3COC(Cn4ccnc4)(c4ccc(Cl)cc4Cl)O3)cc2)CC1 (centres undefined) [KETOCONAZOLE] | 73.4

System: MCF7
Test: Growth inhibition of human MCF7 cells at 50 uM after 48 hrs by SRB assay relative to control
Type: functional
Details: MCF7, 48 h, read-out: GI

Structure (SMILES) | inhibition of growth at 50 µM [%]
C[C@]12CC[C@H](OC(=O)C3CCCC3)CC1=CC[C@@H]1[C@@H]2CC[C@]2(C)C(n3cncn3)=C(C=O)C[C@@H]12 | 0
C[C@]12CC[C@H](OC(=O)C3CCCCC3)CC1=CC[C@@H]1[C@@H]2CC[C@]2(C)C(n3cncn3)=C(C=O)C[C@@H]12 | 11
C[C@]12CC[C@H](OC(=O)C3CCCCCC3)CC1=CC[C@@H]1[C@@H]2CC[C@]2(C)C(n3cncn3)=C(C=O)C[C@@H]12 | 78
COc1ccc(C(=O)O[C@H]2CC[C@@]3(C)C(=CC[C@@H]4[C@@H]3CC[C@]3(C)C(n5cncn5)=C(C=O)C[C@@H]43)C2)cc1 | 23
Cc1ccc(C(=O)O[C@H]2CC[C@@]3(C)C(=CC[C@@H]4[C@@H]3CC[C@]3(C)C(n5cncn5)=C(C=O)C[C@@H]43)C2)cc1 | 48.7
C[C@]12CC[C@H](OC(=O)c3ccccc3)CC1=CC[C@@H]1[C@@H]2CC[C@]2(C)C(n3cncn3)=C(C=O)C[C@@H]12 | 33.5
C[C@]12CC[C@H](OC(=O)c3ccc(C(F)(F)F)cc3)CC1=CC[C@@H]1[C@@H]2CC[C@]2(C)C(n3cncn3)=C(C=O)C[C@@H]12 | 100
C[C@]12CC[C@H](OC(=O)c3ccc(C#N)cc3)CC1=CC[C@@H]1[C@@H]2CC[C@]2(C)C(n3cncn3)=C(C=O)C[C@@H]12 | 100
C[C@]12CC[C@H](OC(=O)c3ccc([N+](=O)[O-])cc3)CC1=CC[C@@H]1[C@@H]2CC[C@]2(C)C(n3cncn3)=C(C=O)C[C@@H]12 | 100
COc1ccc(C(=O)O[C@H]2CC[C@@]3(C)C(=CC[C@@H]4[C@@H]3CC[C@]3(C)C(n5cccn5)=C(C=O)C[C@@H]43)C2)cc1 | 100
Cc1ccc(C(=O)O[C@H]2CC[C@@]3(C)C(=CC[C@@H]4[C@@H]3CC[C@]3(C)C(n5cccn5)=C(C=O)C[C@@H]43)C2)cc1 | 0
C[C@]12CC[C@H](OC(=O)c3ccccc3)CC1=CC[C@@H]1[C@@H]2CC[C@]2(C)C(n3cccn3)=C(C=O)C[C@@H]12 | 32.6
C[C@]12CC[C@H](OC(=O)c3ccc(C(F)(F)F)cc3)CC1=CC[C@@H]1[C@@H]2CC[C@]2(C)C(n3cccn3)=C(C=O)C[C@@H]12 | 0
C[C@]12CC[C@H](OC(=O)c3ccc(C#N)cc3)CC1=CC[C@@H]1[C@@H]2CC[C@]2(C)C(n3cccn3)=C(C=O)C[C@@H]12 | 81.2
C[C@]12CC[C@H](OC(=O)c3ccc([N+](=O)[O-])cc3)CC1=CC[C@@H]1[C@@H]2CC[C@]2(C)C(n3cccn3)=C(C=O)C[C@@H]12 | 20.2
C[C@]12CC[C@H](OC(=O)c3ccc(F)cc3)CC1=CC[C@@H]1[C@@H]2CC[C@]2(C)C(n3cccn3)=C(C=O)C[C@@H]12 | 50.7
C[C@]12CC[C@H](OC(=O)c3ccc(Cl)cc3)CC1=CC[C@@H]1[C@@H]2CC[C@]2(C)C(n3cccn3)=C(C=O)C[C@@H]12 | 32.4
C[C@]12CC[C@H](OC(=O)c3ccc(Br)cc3)CC1=CC[C@@H]1[C@@H]2CC[C@]2(C)C(n3cccn3)=C(C=O)C[C@@H]12 | 18.5
C[C@]12CC[C@H](OC(=O)c3ccc(I)cc3)CC1=CC[C@@H]1[C@@H]2CC[C@]2(C)C(n3cccn3)=C(C=O)C[C@@H]12 | 96.8
C[C@]12CC[C@H](O)CC1=CC[C@@H]1[C@@H]2CC[C@]2(C)C(n3cccn3)=C(C=O)C[C@@H]12 | 41.6
C[C@]12CC[C@H](OC(=O)C3CC3)CC1=CC[C@@H]1[C@@H]2CC[C@]2(C)C(n3cncn3)=C(C=O)C[C@@H]12 | 100
C[C@]12CC[C@H](OC(=O)C3CCC3)CC1=CC[C@@H]1[C@@H]2CC[C@]2(C)C(n3cncn3)=C(C=O)C[C@@H]12 | 16.5
CC(=O)N1CCN(c2ccc(OCC3COC(Cn4ccnc4)(c4ccc(Cl)cc4Cl)O3)cc2)CC1 (centres undefined) [KETOCONAZOLE] | 95.2
